Source: patent US4123612A, “7-(5-Am ino-5-carboxyvaleramido)-3-(carbamoyoloxymethyl)-3-cephem-4-carboxylic acid” (Eli Lilly and Company, priority 1974, dated 1978)
Counter-ions that a name gives are not always drawn.

Experiments:
physchem = conditions: 66% dimethylformamide-water
solubility = assay type: physicochemical
Escherichia coli 0127 = experiment: Bauer-Kirby disc diffusion, zone of inhibition; assay type: cell-based
Escherichia coli EC 25 = experiment: Bauer-Kirby disc diffusion, zone of inhibition; assay type: cell-based
Proteus sp. PR6 = experiment: Bauer-Kirby disc diffusion, zone of inhibition; assay type: cell-based
Proteus sp. PR7 = experiment: Bauer-Kirby disc diffusion, zone of inhibition; assay type: cell-based
[1] = system: Klebsiella-Aerobacter KA 14; experiment: Bauer-Kirby disc diffusion, zone of inhibition; assay type: cell-based
[2] = system: Klebsiella-Aerobacter KA 25; experiment: Bauer-Kirby disc diffusion, zone of inhibition; assay type: cell-based
Pseudomonas sp. Ps 24 = experiment: Bauer-Kirby disc diffusion, zone of inhibition; assay type: cell-based
Pseudomonas sp. Ps 30 = experiment: Bauer-Kirby disc diffusion, zone of inhibition; assay type: cell-based
[3] = system: Staphylococcus aureus 3055; experiment: Bauer-Kirby disc diffusion, zone of inhibition; assay type: cell-based
[4] = system: Staphylococcus aureus 3074; experiment: Bauer-Kirby disc diffusion, zone of inhibition; assay type: cell-based
[5] = system: Ascaris lumbricoides var. suum; experiment: anthelmintic evaluation in mice by treated feed, separate factors (Example 13); assay type: in vivo; conditions: 0.05 percent in diet, control 2.66
From the text: The feeds were utilized as diets for separate groups of mice, five mice per group. About twelve hours after initiation of the feeding, the mice were infected with Ascaris lumbricoides var. suum ova. Another group of five mice was fed the non-medicated feed to serve as a control but was similarly infected at the same time with Ascaris lumbricoides var. suum. All groups were fed their respective feed and maintained under normal laboratory conditions for a period of eight days, at which time all mice were taken off feed. On the ninth day, all mice were sacrificed and the lungs examined to determine the presence, and if present, numbers, of lesions of Ascaris lumbricoides var. suum.
In a further evaluation, the monoammonium salts of A16886I and A16886II were separately evaluated for the control of Ascaris lumbricoides var. suum. The evaluations were conducted in accordance with the procedure reported in Example 11 at a concentration in the diet of 0.05 percent.

Salmonella typhosa SA 12 = experiment: Bauer-Kirby disc diffusion, zone of inhibition; conditions: Salmonella enterica
From the text: (§2) The evaluation was made on the monoammonium salts of separated factors I and II.

Salmonella typhosa SA 16 = experiment: Bauer-Kirby disc diffusion, zone of inhibition; conditions: Salmonella enterica
From the text: as §2

Xanthomonas vesicatoria = experiment: field trial on tomato plants, bacterial spot control (Example 9); assay type: in vivo
Procedure: (§1) A mixture of the monoammonium salt of A16886I and the monoammonium salt of A16886II was tested under field conditions for the control of Xanthomonas vesicatoria (bacterial spot) on mature bearing tomato plants. The mixture of the two salts was dispersed in water at a concentration of 100, 200, or 400 parts per million and applied to the plants at the rate of 75 gallons per acre. Application was made with a CO2 sprayer at 50 psi. Plants were sprayed twice, on successive days; after the second spray had dried, all plants were wounded by sand blasting and then within one minute the plants were inoculated with a bacterial inoculum of Xanthomonas vesicatoria. Three days later, a third spray application of the aqueous formulation of A16886 was made. Readings were made one week and two weeks after the last spray treatment. Controls consisted of groups of plants (1) sand blasted and inoculated; (2) sand blasted only; (3) untreated; and (4) treated with streptomycin (on the same three-day spraying schedule, at a concentration of 100, 200, or 400 parts per million of aqueous solution, using a rate of 75 gallons per acre), sand blasted, and inoculated. The results were as set forth in the following table, in which crop injury is reported on a scale of 0-10, with 0 = no injury and 10 = dead plants; and control of bacterial spot is reported on a percentage basis.

tomato plants = experiment: field trial on tomato plants, crop injury (Example 9); assay type: in vivo; conditions: 0 = no injury, 10 = dead plants
Procedure: as §1

With `COC1(NC(=O)CCCC(N)C(=O)O)C(=O)N2C(C(=O)O)=C(COC(N)=O)CSC21` (stereo not drawn) [A16886I hydrochloride] the pKa (physchem; pH 5, pK'a1) was 3.6, the pKa (physchem; pH 5, pK'a2) was 5.2 and the pKa (physchem; pH 5, pK'a3) was 10.8.

With `NC(=O)OCC1=C(C(=O)O)N2C(=O)C(NC(=O)CCCC(N)C(=O)O)[C@H]2SC1` (stereo partly drawn) [A16886II, 7-(5-amino-5-carboxyvaleramido)-3-(carbamoyloxymethyl)-3-cephem-4-carboxylic acid] the “solubility in acetonitrile and other organic solvents” value (solubility; acetonitrile and other organic solvents) was “essentially insoluble”, the “solubility in lower alkanols” value (solubility; lower alkanols) was “slightly soluble” and the solubility in water (solubility; water) was “very soluble”. It also gave a zone of inhibition at 0.5 µg/disc (Escherichia coli 0127; 0.5 μg./disc) of 0 mm, a zone of inhibition at 1 µg/disc (Escherichia coli 0127; 1.0 μg./disc) of 0 mm and a zone of inhibition at 2.5 µg/disc (Escherichia coli 0127; 2.5 μg./disc) of 9.4 mm. The zone of inhibition at 5 µg/disc (Escherichia coli 0127; 5 μg./disc) was 12.9 mm, the zone of inhibition at 10 µg/disc (Escherichia coli 0127; 10 μg./disc) was 15.9 mm and the zone of inhibition at 30 µg/disc (Escherichia coli 0127; 30 μg./disc) was 19.7 mm. It also gave a zone of inhibition at 0.5 µg/disc (Escherichia coli EC 25; EC25, 0.5 μg./disc) of 0 mm, a zone of inhibition at 1 µg/disc (Escherichia coli EC 25; EC25, 1.0 μg./disc) of 0 mm and a zone of inhibition at 2.5 µg/disc (Escherichia coli EC 25; EC25, 2.5 μg./disc) of 0 mm. For the same compound, the zone of inhibition at 5 µg/disc (Escherichia coli EC 25; EC25, 5 μg./disc) was 0 mm, the zone of inhibition at 10 µg/disc (Escherichia coli EC 25; EC25, 10 μg./disc) was 7.7 mm and the zone of inhibition at 30 µg/disc (Escherichia coli EC 25; EC25, 30 μg./disc) was 11.9 mm. For the same compound, the zone of inhibition at 0.5 µg/disc (Proteus sp. PR6; 0.5 μg./disc) was 0 mm, the zone of inhibition at 1 µg/disc (Proteus sp. PR6; 1.0 μg./disc) was 0 mm and the zone of inhibition at 2.5 µg/disc (Proteus sp. PR6; 2.5 μg./disc) was 10.4 mm. The zone of inhibition at 5 µg/disc (Proteus sp. PR6; 5 μg./disc) was 13.6 mm, the zone of inhibition at 10 µg/disc (Proteus sp. PR6; 10 μg./disc) was 16.7 mm and the zone of inhibition at 30 µg/disc (Proteus sp. PR6; 30 μg./disc) was 22.2 mm. The zone of inhibition at 0.5 µg/disc (Proteus sp. PR7; 0.5 μg./disc) was 0 mm, the zone of inhibition at 1 µg/disc (Proteus sp. PR7; 1.0 μg./disc) was 0 mm and the zone of inhibition at 2.5 µg/disc (Proteus sp. PR7; 2.5 μg./disc) was 0 mm. For the same compound, the zone of inhibition at 5 µg/disc (Proteus sp. PR7; 5 μg./disc) was 0 mm, the zone of inhibition at 10 µg/disc (Proteus sp. PR7; 10 μg./disc) was 0 mm and the zone of inhibition at 30 µg/disc (Proteus sp. PR7; 30 μg./disc) was 7.1 mm. It also gave a zone of inhibition at 0.5 µg/disc ([1]; 0.5 μg./disc) of 0 mm, a zone of inhibition at 1 µg/disc ([1]; 1.0 μg./disc) of 0 mm and a zone of inhibition at 2.5 µg/disc ([1]; 2.5 μg./disc) of 0 mm. The zone of inhibition at 5 µg/disc ([1]; 5 μg./disc) was 10.8 mm, the zone of inhibition at 10 µg/disc ([1]; 10 μg./disc) was 13.7 mm and the zone of inhibition at 30 µg/disc ([1]; 30 μg./disc) was 20.1 mm. The zone of inhibition at 0.5 µg/disc ([2]; 0.5 μg./disc) was 0 mm, the zone of inhibition at 1 µg/disc ([2]; 1.0 μg./disc) was 0 mm and the zone of inhibition at 2.5 µg/disc ([2]; 2.5 μg./disc) was 0 mm. The zone of inhibition at 5 µg/disc ([2]; 5 μg./disc) was 7.4 mm, the zone of inhibition at 10 µg/disc ([2]; 10 μg./disc) was 10.1 mm and the zone of inhibition at 30 µg/disc ([2]; 30 μg./disc) was 15.6 mm. It also gave a zone of inhibition at 0.5 µg/disc (Pseudomonas sp. Ps 24; SP.PS24, 0.5 μg./disc) of 0 mm, a zone of inhibition at 1 µg/disc (Pseudomonas sp. Ps 24; SP.PS24, 1.0 μg./disc) of 0 mm and a zone of inhibition at 2.5 µg/disc (Pseudomonas sp. Ps 24; SP.PS24, 2.5 μg./disc, * = satellite colonies within zone (Factor II)) of 9.3 mm. For the same compound, the zone of inhibition at 5 µg/disc (Pseudomonas sp. Ps 24; SP.PS24, 5 μg./disc, * = satellite colonies within zone (Factor II)) was 12.3 mm, the zone of inhibition at 10 µg/disc (Pseudomonas sp. Ps 24; SP.PS24, 10 μg./disc) was 15.4 mm and the zone of inhibition at 30 µg/disc (Pseudomonas sp. Ps 24; SP.PS24, 30 μg./disc) was 20.2 mm. The zone of inhibition at 0.5 µg/disc (Pseudomonas sp. Ps 30; SP.PS30, 0.5 μg./disc) was 0 mm, the zone of inhibition at 1 µg/disc (Pseudomonas sp. Ps 30; SP.PS30, 1.0 μg./disc) was 0 mm and the zone of inhibition at 2.5 µg/disc (Pseudomonas sp. Ps 30; SP.PS30, 2.5 μg./disc) was 0 mm. For the same compound, the zone of inhibition at 5 µg/disc (Pseudomonas sp. Ps 30; SP.PS30, 5 μg./disc) was 0 mm, the zone of inhibition at 10 µg/disc (Pseudomonas sp. Ps 30; SP.PS30, 10 μg./disc) was 0 mm and the zone of inhibition at 30 µg/disc (Pseudomonas sp. Ps 30; SP.PS30, 30 μg./disc) was 0 mm. It also gave a zone of inhibition at 0.5 µg/disc ([3]; 0.5 μg./disc) of 0 mm, a zone of inhibition at 1 µg/disc ([3]; 1.0 μg./disc) of 0 mm and a zone of inhibition at 2.5 µg/disc ([3]; 2.5 μg./disc) of 0 mm. It also gave a zone of inhibition at 5 µg/disc ([3]; 5 μg./disc) of 0 mm, a zone of inhibition at 10 µg/disc ([3]; 10 μg./disc) of 0 mm and a zone of inhibition at 30 µg/disc ([3]; 30 μg./disc) of 12.4 mm. It also gave a zone of inhibition at 0.5 µg/disc ([4]; 0.5 μg./disc) of 0 mm, a zone of inhibition at 1 µg/disc ([4]; 1.0 μg./disc) of 0 mm and a zone of inhibition at 2.5 µg/disc ([4]; 2.5 μg./disc) of 0 mm. The zone of inhibition at 5 µg/disc ([4]; 5 μg./disc) was 0 mm, the zone of inhibition at 10 µg/disc ([4]; 10 μg./disc) was 0 mm and the zone of inhibition at 30 µg/disc ([4]; 30 μg./disc) was 10.1 mm. The “Average Number of Lung Lesions Per Group” value [5] was 0.20, the pKa (physchem; pH 6.8, pK'a1) was 4 and the pKa (physchem; pH 6.8, pK'a2) was 5.3. For the same compound, the pKa (physchem; pH 6.8, pK'a3) was 9.2, the pKa (physchem; pH 6.8, pK'a4) was 10.5 and the pKa (physchem; pH 7.7, pK'a1) was 4.4. It also gave a pKa (physchem; pH 7.7, pK'a2) of 5.7, a pKa (physchem; pH 7.7, pK'a3) of 9.6 and a pKa (physchem; pH 7.7, pK'a4) of 10.4. It also gave a zone of inhibition at 0.5 µg/disc (Salmonella typhosa SA 12) of 0 mm, a zone of inhibition at 1 µg/disc (Salmonella typhosa SA 12) of 7.5 mm and a zone of inhibition at 2.5 µg/disc (Salmonella typhosa SA 12) of 12.3 mm. It also gave a zone of inhibition at 5 µg/disc (Salmonella typhosa SA 12) of 15.6 mm, a zone of inhibition at 10 µg/disc (Salmonella typhosa SA 12) of 18.7 mm and a zone of inhibition at 30 µg/disc (Salmonella typhosa SA 12) of 23.8 mm. The zone of inhibition at 0.5 µg/disc (Salmonella typhosa SA 16) was 0 mm, the zone of inhibition at 1 µg/disc (Salmonella typhosa SA 16) was 0 mm and the zone of inhibition at 2.5 µg/disc (Salmonella typhosa SA 16) was 7.5 mm. For the same compound, the zone of inhibition at 5 µg/disc (Salmonella typhosa SA 16) was 11 mm, the zone of inhibition at 10 µg/disc (Salmonella typhosa SA 16) was 13.4 mm and the zone of inhibition at 30 µg/disc (Salmonella typhosa SA 16) was 19.3 mm.

For `[H]/N=C(/N)N[C@H]1[C@H](O)[C@@H](O)[C@H](O[C@@H]2O[C@@H](C)[C@](O)(C=O)[C@H]2O[C@@H]2O[C@@H](CO)[C@H](O)[C@@H](O)[C@@H]2NC)[C@@H](N/C(N)=N\[H])[C@@H]1O` [Streptomycin], the “Percent Bacterial Spot Control” value (Xanthomonas vesicatoria; 100 parts/million, first reading (one week)) was 83%, the “Percent Bacterial Spot Control” value (Xanthomonas vesicatoria; 100 parts/million, second reading (two weeks)) was 57% and the “Percent Bacterial Spot Control” value (Xanthomonas vesicatoria; 200 parts/million, first reading (one week)) was 81%. For the same compound, the “Percent Bacterial Spot Control” value (Xanthomonas vesicatoria; 200 parts/million, second reading (two weeks)) was 37%, the “Percent Bacterial Spot Control” value (Xanthomonas vesicatoria; 400 parts/million, first reading (one week)) was 83% and the “Percent Bacterial Spot Control” value (Xanthomonas vesicatoria; 400 parts/million, second reading (two weeks)) was 59%. The “Crop Injury Ratings” value (tomato plants; 100 parts/million, first reading) was 0, the “Crop Injury Ratings” value (tomato plants; 100 parts/million, second reading) was 0 and the “Crop Injury Ratings” value (tomato plants; 200 parts/million, first reading) was 0. For the same compound, the “Crop Injury Ratings” value (tomato plants; 200 parts/million, second reading) was 0, the “Crop Injury Ratings” value (tomato plants; 400 parts/million, first reading) was 0 and the “Crop Injury Ratings” value (tomato plants; 400 parts/million, second reading) was 0.
